US20130158267A1, “METHOD OF SYNTHESIZING THE COMPLEX [ZN(NNS)2] ACTIVE AGAINST THE MALARIA PARASITE PLASMODIUM” (priority 2010, published 2013)

System: chloroquine resistant strain (W2)
Assay: activity against chloroquine resistant strain of the malaria parasite
Type: cell-based, Plasmodium falciparum
Conditions: compared with control drug
Excerpt: 3-[1-(2-pyridyl)ethylidene]hydrazinecarbodithioate have moderate potency against falcipain-2 (FP-2) and falcipain-3 (FP-3) cysteine protease enzymes from the malaria parasite plasmodium falciparum while they portray enormous potency against the chloroquine resistant strain (W2) of the parasite. This patent describes the synthesis, characterization and biological results of metal complexes containing deprotonated 3-[1-(2-pyridyl) ethylidene] hydrazinecarbodithioate ligand (FIG. 1). The metal complex were synthesized and recrystallized. The biological activities (nanomolar) of the metal complex against malaria parasites were tested and tabled as table 2 in FIG. 6 of the drawings. The metal potency was far much greater than the control drug with respect to W-2 . This observation is extremely important as malaria resistance against the chloroquine drug is a great challenge today. This metal complex may act as lead compounds for developing future malaria drugs . […] The potency of cadmium is greatest with respect to W-2 compared to other metals as well as the control drug. The metal complex ZnL(LH)Cl containing the deprotonated dithioester L- have been synthesized and charachterized by elemental analysis, mass spectrometry, proton NMR and Fourier transform IR. The ligand LH undergoes tautomerism which can readily get ionized to generate a deprotonated ligand L-. […]

For [Cd] [cadmium], the “potency against W-2 in words / activity sequence versus control” value was “greatest”.
